This note sets out measurements from US12527329B2, “Compositions and methods relating to insecticides” (priority 2019, dated 2026).

The test system of series [1] is pyrethroid-susceptible strain of Aedes aegypti (Orlando). The format is in vivo. The settings on record: topical; for KD50: 1-hr; for LD50: 24-hr. How it is done:
(§1) Aedes aegypti mosquitoes (susceptible Orlando strain and pyrethroid resistant Puerto Rico strain) were reared using standard protocols and provided by the United States Department of Agriculture—Center of Medical, Agricultural, and Veterinary Entomology (Gainesville, FL). Adult mosquitoes were anesthetized on ice, and the females treated with 0.2 μL of ethanolic solution using a repeating micro-applicator (Hamilton Co., Reno, NV). Ten females were used per concentration and taken from at least three different emerged cohorts. Knockdown (defined as inability to fly or orient in the upright direction) was recorded at 1 hr or other time points post application (depending on the experiment), whereas mortality (defined as no movement—ataxia) was recorded at 24 hr. […] Synergism studies were performed using the maximal sublethal dose of the fir needle oil in combination with varying concentrations of insecticide to calculate the LD50 value of the insecticide in combination with the natural synergist. SAS 9.4 software was used to calculate the LD50 values using a PROC PROBIT model with Abbott's correction to account for any control mortality. Synergist ratios were calculated as: KD50 or LD50 of compound alone÷KD50 or LD50 of compound+Fir needle oil.

In series [2] the test system is Aedes aegypti mosquitoes. The format is in vivo. How it is done:
This plant essential oil has been screened in combination with natural pyrethrins to assess the ability of this oil and these compositions to increase mortality and knockdown at 24-hr and 1-hr, respectively. […] As described herein, all compounds were dissolved and applied topically in ethanol or acetone.
An example of such synergism can be seen in FIG. 4. FIG. 4 is a graph showing synergism of insecticide (natural pyrethrins, NPs), piperonyl butoxide (PBO), and the combination thereof on mortality (24 hour) of Aedes aegypti mosquitoes. Mosquitoes were treated topically with 0.2 μL of different concentrations of insecticide+1% or 5% (w/v) piperonyl butoxide (PBO) in acetone. Mortality was recorded 24 hr after treatment.
Another example of such synergism is shown in FIG. 5, which is a graph showing antagonism of (natural pyrethrins, NPs), PBO, and the combination on knockdown (1 hour) of Aedes aegypti mosquitoes. Mosquitoes were treated with 0.2 μL different concentrations of insecticide+1% or 5% (w/v) PBO oil in acetone. Mortality was recorded 24 hr after exposure. FIG. 6 is an annotated version of FIG. 5 with arrows denoting statistically significant reduction in knockdown effect.
FIG. 7 is a graph showing synergism of (natural pyrethrins, NPs), fir needle oil, and the combination thereof on knockdown (1 hour) and mortality (24 hour) of Aedes aegypti mosquitoes. Mosquitoes were treated with 0.2 μL of different concentrations of insecticide+1% or 5% (w/v) fir needle oil in acetone. Mortality was recorded 24 hr after exposure.
as §1

Series [3] deals with pyrethroid-resistant Aedes aegypti strain (Puerto Rico). Briefly: Topical application on the pyrethroid-resistant Puerto Rico strain: 24-hr LD50 and 1-hr KD50. Type of series: in vivo. The arrangement: unit not given beside the values. The settings on record: alone or with FNO 5%. The protocol: as §1
In series [4] the test system is ethoxycoumarin de-ethylase (cytochrome P450 mono-oxygenase). Briefly: Ethoxycoumarin de-ethylase activity assay on homogenates of topically treated mosquitoes. The format is biochemical, Aedes aegypti. The settings on record: 0.2 μL of 5% (w/v) topically, 4 hr before homogenization; ANOVA with Tukey's posttest, P<0.05 (FIG. 9). The protocol: Ethoxycoumarin de-ethylase activity was measured according the methods of Anderson and Zhu (2004) with minor modifications. In short, mosquitoes were treated with 0.2 μL of fir needle oil or delta-carene 5% w/v solution in ethanol and incubated for 4 hr prior to sacrificing treated insects. Approximately 100 insects were homogenized in 0.1 PBS solution, and homogenates centrifuged at 10,000×g for 20 minutes at 4° C. The resulting supernatant containing microsomes was then used as the enzyme preparation for the remainder of the assay. In each well, 20 μL of enzyme preparation was added to a final volume of 100 μL 0.1 PBS containing 250 μM reduced β-NADPH and 2 mM ethoxycoumarin. After adding the enzyme solution to the wells, plates were incubated at room temperature for 3 hr. After 3 hr incubation, 10 μL of 3.2 mM of oxidized glutathione was added to each well and 1 U of yeast glutathione reductase was added to each well. […] Fluorescence values were then read at 390/465 nm excitation/[…].

The mark [5] stands for this setting: 1-hr knockdown, topical, insecticide with or without 1% fir needle oil, ng dose per mg insect body weight.

Like-named read-outs stand apart in the source and are kept apart here.

Regarding `CC1(C)C(C=C(Cl)Cl)C1C(=O)OCc1cccc(Oc2ccccc2)c1` (racemic) [Permethrin, 3-phenoxybenzyl (1RS)-cis,trans-3-(2,2-dichlorovinyl)-2,2-dimethylcyclopropanecarboxylate], the KD50 in series [1] (alone or with FNO 5%) and in series [2] (in vivo) was 0.06 ng/mg in each case. In addition, the LD50 in series [1] (alone or with FNO 5%) and in series [2] (in vivo) was 0.09 ng/mg each time.
Consider `CNC(=N[N+](=O)[O-])NCc1cnc(Cl)s1` [Clothianidin, 1-(2-Chloro-1,3-thiazol-5-ylmethyl)-3-methyl-2-nitroguanidine], for which the KD50 in series [1] (alone or with FNO 5%) came out at 22 ng/mg; in series [1] (clothianidin alone or with 5% w/v FNO, delta-3-carene or bornyl acetate (Table 3)), 22; in series [3] it was 9.15; in series [2] (setting [5]), 22 ng/mg. Besides, the LD50 in series [1] (alone or with FNO 5%) is recorded as 4.5 ng/mg; in series [2] (24-hr lethal dose, topical, insecticide with or without 1% fir needle oil, ng dose per mg insect body weight) it was 4.5 ng/mg.
With `CC1(C)[C@H](C(=O)O[C@H](C#N)c2cccc(Oc3ccccc3)c2)[C@@H]1C=C(Br)Br` [Deltamethrin, (S)-α-cyano-3-phenoxybenzyl (1R)-cis-3-(2,2-dibromovinyl)-2,2-dimethylcyclopropanecarboxylate], in series [2] (setting [5]), the KD50 is on record as 0.003 ng/mg.
Turning to `N#Cc1nn(-c2c(Cl)cc(C(F)(F)F)cc2Cl)c(N)c1[S+]([O-])C(F)(F)F` (stereo not shown) [Fipronil], in series [1] (alone or with FNO 5%), the KD50 is listed as 10.7 ng/mg and the LD50 is 0.1 ng/mg.
As to `O=[N+]([O-])N=C1NCCN1Cc1ccc(Cl)nc1` [Imidacloprid, 1-(6-chloro-3-pyridylmethyl)-N-nitroimidazolidin-2-ylideneamine], the KD50 in series [1] (alone or with FNO 5%) amounted to 3.7 ng/mg; in series [3], 10.7. Also, the LD50 in series [1] (alone or with FNO 5%) was 1.1 ng/mg.
For the compound `CN1COCN(Cc2cnc(Cl)s2)C1=N[N+](=O)[O-]` [Thiamethoxam, 3-((2-chloro-5-thiazolyl)methyl)-5-methyl-4-nitroiminotetrahydro-1,3,5-oxadiazine], in series [1] (alone or with FNO 5%), the KD50 was determined as 17.2 ng/mg and the LD50 was 3.4 ng/mg.
`CC1=CCC2C(C1)C2(C)C` (stereo not shown) [delta-carene, delta-3-carene]: the “ethoxycoumarin de-ethylase (cytochrome P450 mono-oxygenase) activity versus vehicle-treated mosquitoes” value in series [4] was “not increasing P450 activity”.
